Results on 10 molecules are retold here after US7728012B2, “Carboxamide compounds and their use as calpain inhibitors” (Abbott GmbH & Co. KG, priority 2006, dated 2010).

What all share (format): biochemical
The target in assay [1] is T1, calpain-I isolated from human erythrocytes (Homo sapiens, UniProt P07384).
T1 construct: calpain-I—isolated from human erythrocytes; purchased Calbiochem 208713; host or cells: human erythrocytes (tissue isolate)
T1 sequence (P07384 1-714): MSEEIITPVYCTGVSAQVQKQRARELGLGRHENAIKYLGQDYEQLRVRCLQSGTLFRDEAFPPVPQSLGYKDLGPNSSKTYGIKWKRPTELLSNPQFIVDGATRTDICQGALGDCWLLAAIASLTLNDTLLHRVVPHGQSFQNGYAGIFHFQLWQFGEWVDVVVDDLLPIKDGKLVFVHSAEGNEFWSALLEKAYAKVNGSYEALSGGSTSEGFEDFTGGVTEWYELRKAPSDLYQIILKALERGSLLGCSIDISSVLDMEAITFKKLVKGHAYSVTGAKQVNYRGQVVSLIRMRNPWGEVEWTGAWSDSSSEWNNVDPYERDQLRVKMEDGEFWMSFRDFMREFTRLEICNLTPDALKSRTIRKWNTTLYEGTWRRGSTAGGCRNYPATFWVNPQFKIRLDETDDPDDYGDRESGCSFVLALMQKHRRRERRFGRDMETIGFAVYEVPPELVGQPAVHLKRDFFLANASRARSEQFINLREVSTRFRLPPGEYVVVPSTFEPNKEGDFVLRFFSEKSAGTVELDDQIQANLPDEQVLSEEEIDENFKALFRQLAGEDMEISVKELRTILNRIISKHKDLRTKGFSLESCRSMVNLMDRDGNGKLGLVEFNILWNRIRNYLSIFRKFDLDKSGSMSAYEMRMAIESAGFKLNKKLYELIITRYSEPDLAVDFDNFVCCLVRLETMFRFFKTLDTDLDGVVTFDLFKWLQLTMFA
T1 sequence (P04632 1-268 partner): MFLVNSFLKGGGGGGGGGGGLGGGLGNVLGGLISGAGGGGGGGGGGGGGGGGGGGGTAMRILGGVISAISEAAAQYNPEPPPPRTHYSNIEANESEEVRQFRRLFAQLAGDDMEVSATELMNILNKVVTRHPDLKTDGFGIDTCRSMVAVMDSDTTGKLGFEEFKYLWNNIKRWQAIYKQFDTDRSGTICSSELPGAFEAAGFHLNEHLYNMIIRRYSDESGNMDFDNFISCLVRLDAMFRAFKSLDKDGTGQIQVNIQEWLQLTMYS
Briefly: Calpain I kinetic fluorescence enzyme inhibition assay. Conditions: apparent Ki from IC50 by Cheng-Prussoff; average of 2 to 4 dose-effect plots.

Assay [2] deals with T2, cathepsin B isolated from human liver (Homo sapiens, UniProt P07858).
T2 construct: cathepsin B—isolated from human liver; purchased Calbiochem 219362; host or cells: human liver (tissue isolate)
Briefly: Cathepsin B kinetic fluorescence enzyme inhibition assay. Conditions: selectivity ratio versus calpain I. The procedure, abridged:
(§1)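 Cathepsin B (0.25 nM, human liver) with 100 μM Z-Phe-Arg-AMC; L (1 nM, human liver) with 2 μM Z-Phe-Arg-AMC; S (0.5 nM, recombinant) with 20 μM Z-Val-Val-Arg-AMC. pH 6.0 MES buffer, 2.5 mM L-cysteine, room temperature. Kinetic fluorescence (ex 390/em 460 nm); apparent Ki from IC50 by Cheng-Prusoff.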

For assay [3], the target named is T3, cathepsin K activated from recombinant human procathepsin K (Homo sapiens, UniProt P43235).
T3 construct: purchased Calbiochem 342001; host or cells: E. coli
T3 sequence (P43235 115-329): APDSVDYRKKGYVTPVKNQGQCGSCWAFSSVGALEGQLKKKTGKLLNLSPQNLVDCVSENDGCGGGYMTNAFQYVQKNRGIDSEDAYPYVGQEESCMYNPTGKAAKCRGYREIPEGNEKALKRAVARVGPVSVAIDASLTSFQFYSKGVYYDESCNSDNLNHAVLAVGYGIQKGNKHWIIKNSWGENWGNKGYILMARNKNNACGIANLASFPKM
Put plainly: Cathepsin K kinetic fluorescence enzyme inhibition assay. Conditions: selectivity ratio versus calpain I.

Assay [4] concerns the target T4, cathepsin L isolated from human liver (Homo sapiens, UniProt P07711).
T4 construct: cathepsin L—isolated from human liver; purchased Calbiochem 219402; host or cells: human liver (tissue isolate)
Briefly: Cathepsin L kinetic fluorescence enzyme inhibition assay. Conditions: selectivity ratio versus calpain I. Summed up: as §1

The target of assay [5] is T5, recombinant human cathepsin S (Homo sapiens, UniProt P25774).
T5 construct: purchased Calbiochem 219343; host or cells: E. coli
Put plainly: Cathepsin S kinetic fluorescence enzyme inhibition assay. Conditions: selectivity ratio versus calpain I. The procedure, abridged: as §1

T4 sequence (P07711 114-333): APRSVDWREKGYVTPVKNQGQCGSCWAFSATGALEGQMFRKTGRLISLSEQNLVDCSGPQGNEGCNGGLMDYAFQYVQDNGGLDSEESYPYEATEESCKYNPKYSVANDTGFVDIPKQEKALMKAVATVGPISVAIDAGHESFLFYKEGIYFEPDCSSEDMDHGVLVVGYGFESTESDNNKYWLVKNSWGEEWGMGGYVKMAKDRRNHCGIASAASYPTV
T5 sequence (P25774 115-331): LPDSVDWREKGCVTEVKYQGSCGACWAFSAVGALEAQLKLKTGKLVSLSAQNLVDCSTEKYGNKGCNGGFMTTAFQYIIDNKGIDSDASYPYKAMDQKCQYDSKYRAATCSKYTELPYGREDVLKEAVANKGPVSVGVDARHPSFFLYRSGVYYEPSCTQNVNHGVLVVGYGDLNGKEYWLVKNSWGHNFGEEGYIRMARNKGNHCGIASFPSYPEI

For `NC(=O)C(=O)C(Cc1ccccc1)NC(=O)c1cccnc1-n1ccc(-c2c(Cl)cccc2Cl)n1` (centres unmarked) [Example 95, N-[3-Amino-2,3-dioxo-1-(phenylmethyl)propyl]-2-[3-(2,6-dichlorophenyl)-1H-pyrazol-1-yl]pyridine-3-carboxamide], the Ki in assay [1] is not above 40 nM. Also, in assay [2], the “Sel cat. B (Ki(cathepsin B)/Ki(calpain) ratio)” value is listed as “++ (Ki(cathepsin B)/Ki(calpain) ratio of ≧30)”. Moreover, in assay [3], the “Sel cat. K (Ki(cathepsin K)/Ki(calpain) ratio)” value is listed as “++ (Ki(cathepsin K)/Ki(calpain) ratio of ≧30)”. Also, the “Sel cat. L (Ki(cathepsin L)/Ki(calpain) ratio)” value in assay [4] is recorded as “++ (Ki(cathepsin L)/Ki(calpain) ratio of ≧50)”. Moreover, in assay [5], the “Sel cat. S (Ki(cathepsin S)/Ki(calpain) ratio)” value is given as “++ (Ki(cathepsin S)/Ki(calpain) ratio of ≧100)”.

On to `NC(=O)C(=O)C(Cc1ccccc1)NC(=O)c1cccnc1-n1ccc(-c2cccc(OCc3ccccc3)c2)n1` (centres unmarked) [Example 96, N-[3-Amino-2,3-dioxo-1-(phenylmethyl)propyl]-2-(3-{3-[(phenylmethyl)oxy]phenyl}-1H-pyrazol-1-yl)pyridine-3-carboxamide], for which the Ki in assay [1] is not above 40 nM. In addition, the “Sel cat. B (Ki(cathepsin B)/Ki(calpain) ratio)” value in assay [2] is reported as “++ (Ki(cathepsin B)/Ki(calpain) ratio of ≧30)”. Also, the “Sel cat. K (Ki(cathepsin K)/Ki(calpain) ratio)” value in assay [3] is reported as “++ (Ki(cathepsin K)/Ki(calpain) ratio of ≧30)”. In assay [4], the “Sel cat. L (Ki(cathepsin L)/Ki(calpain) ratio)” value was “++ (Ki(cathepsin L)/Ki(calpain) ratio of ≧50)”. Further, the “Sel cat. S (Ki(cathepsin S)/Ki(calpain) ratio)” value in assay [5] was “++ (Ki(cathepsin S)/Ki(calpain) ratio of ≧100)”.

Take `COc1ccc(CC(NC(=O)c2cccnc2-n2ccc(-c3ccc(F)cc3F)n2)C(=O)C(N)=O)cc1` (centres unmarked) [Example 97, N-(3-Amino-1-{[4-(methyloxy)phenyl]methyl}-2,3-dioxopropyl)-2-[3-(2,4-difluorophenyl)-1H-pyrazol-1-yl]pyridine-3-carboxamide]: the Ki in assay [1] was not above 40 nM. For the same molecule, in assay [2], the “Sel cat. B (Ki(cathepsin B)/Ki(calpain) ratio)” value is recorded as “++ (Ki(cathepsin B)/Ki(calpain) ratio of ≧30)”. Also, the “Sel cat. K (Ki(cathepsin K)/Ki(calpain) ratio)” value in assay [3] is “+ (10≦Ki(cathepsin K)/Ki(calpain)<30)”. For the same molecule, the “Sel cat. L (Ki(cathepsin L)/Ki(calpain) ratio)” value in assay [4] is listed as “++ (Ki(cathepsin L)/Ki(calpain) ratio of ≧50)”. The “Sel cat. S (Ki(cathepsin S)/Ki(calpain) ratio)” value in assay [5] was “++ (Ki(cathepsin S)/Ki(calpain) ratio of ≧100)”.

With `COc1ccc(CC(NC(=O)c2cccnc2-n2ccc(-c3ccc(Cl)cc3Cl)n2)C(=O)C(N)=O)cc1` (centres unmarked) [Example 98, N-(3-Amino-1-{[4-(methyloxy)phenyl]methyl}-2,3-dioxopropyl)-2-[3-(2,4-dichlorophenyl)-1H-pyrazol-1-yl]pyridine-3-carboxamide], in assay [1], the Ki was not above 40 nM. Moreover, the “Sel cat. B (Ki(cathepsin B)/Ki(calpain) ratio)” value in assay [2] is “++ (Ki(cathepsin B)/Ki(calpain) ratio of ≧30)”. In addition, in assay [3], the “Sel cat. K (Ki(cathepsin K)/Ki(calpain) ratio)” value is listed as “++ (Ki(cathepsin K)/Ki(calpain) ratio of ≧30)”. Also, in assay [4], the “Sel cat. L (Ki(cathepsin L)/Ki(calpain) ratio)” value is “++ (Ki(cathepsin L)/Ki(calpain) ratio of ≧50)”. The “Sel cat. S (Ki(cathepsin S)/Ki(calpain) ratio)” value in assay [5] is reported as “++ (Ki(cathepsin S)/Ki(calpain) ratio of ≧100)”.

As to `NC(=O)C(=O)C(Cc1ccccc1)NC(=O)c1cccnc1-n1ccc(-c2ccc(N3CCOCC3)cc2Cl)n1` (centres unmarked) [Example 99, N-[3-Amino-2,3-dioxo-1-(phenylmethyl)propyl]-2-[3-(2-chloro-4-morpholin-4-ylphenyl)-1H-pyrazol-1-yl]pyridine-3-carboxamide], the Ki in assay [1] is not above 40 nM. Besides, the “Sel cat. B (Ki(cathepsin B)/Ki(calpain) ratio)” value in assay [2] was “++ (Ki(cathepsin B)/Ki(calpain) ratio of ≧30)”. The “Sel cat. K (Ki(cathepsin K)/Ki(calpain) ratio)” value in assay [3] was “++ (Ki(cathepsin K)/Ki(calpain) ratio of ≧30)”. Also, the “Sel cat. L (Ki(cathepsin L)/Ki(calpain) ratio)” value in assay [4] was “++ (Ki(cathepsin L)/Ki(calpain) ratio of ≧50)”. Also, the “Sel cat. S (Ki(cathepsin S)/Ki(calpain) ratio)” value in assay [5] is “++ (Ki(cathepsin S)/Ki(calpain) ratio of ≧100)”.

On to `NC(=O)C(=O)C(Cc1ccccc1)NC(=O)c1cccnc1-n1cc2c(n1)-c1ccccc1OC2` (centres unmarked) [Example 100, N-[3-Amino-2,3-dioxo-1-(phenylmethyl)propyl]-2-chromeno[4,3-c]pyrazol-2(4H)-ylpyridine-3-carboxamide], for which, in assay [1], the Ki is not above 40 nM. Moreover, the “Sel cat. B (Ki(cathepsin B)/Ki(calpain) ratio)” value in assay [2] is on record as “+ (10≦Ki(cathepsin B)/Ki(calpain)<30)”. Further, in assay [3], the “Sel cat. K (Ki(cathepsin K)/Ki(calpain) ratio)” value was “++ (Ki(cathepsin K)/Ki(calpain) ratio of ≧30)”. The “Sel cat. L (Ki(cathepsin L)/Ki(calpain) ratio)” value in assay [4] is listed as “++ (Ki(cathepsin L)/Ki(calpain) ratio of ≧50)”. Besides, the “Sel cat. S (Ki(cathepsin S)/Ki(calpain) ratio)” value in assay [5] is “++ (Ki(cathepsin S)/Ki(calpain) ratio of ≧100)”.

With `NC(=O)C(=O)C(Cc1ccccc1)NC(=O)c1cccnc1-n1ccc(-c2ccc(N3CCOCC3)cc2F)n1` (centres unmarked) [Example 102, N-[3-Amino-2,3-dioxo-1-(phenylmethyl)propyl]-2-[3-(2-fluoro-4-morpholin-4-ylphenyl)-1H-pyrazol-1-yl]pyridine-3-carboxamide], the Ki in assay [1] is not above 40 nM. In addition, the “Sel cat. B (Ki(cathepsin B)/Ki(calpain) ratio)” value in assay [2] was “+ (10≦Ki(cathepsin B)/Ki(calpain)<30)”. Also, the “Sel cat. K (Ki(cathepsin K)/Ki(calpain) ratio)” value in assay [3] was “++ (Ki(cathepsin K)/Ki(calpain) ratio of ≧30)”. Besides, the “Sel cat. L (Ki(cathepsin L)/Ki(calpain) ratio)” value in assay [4] is “++ (Ki(cathepsin L)/Ki(calpain) ratio of ≧50)”. Further, in assay [5], the “Sel cat. S (Ki(cathepsin S)/Ki(calpain) ratio)” value was “++ (Ki(cathepsin S)/Ki(calpain) ratio of ≧100)”.

With `NC(=O)C(=O)C(Cc1ccccc1)NC(=O)c1cccnc1-n1ccc(-c2ccc(Cl)s2)n1` (centres unmarked) [Example 103, N-[3-Amino-2,3-dioxo-1-(phenylmethyl)propyl]-2-[3-(5-chloro-2-thienyl)-1H-pyrazol-1-yl]pyridine-3-carboxamide], in assay [1], the Ki was not above 40 nM. Further, the “Sel cat. B (Ki(cathepsin B)/Ki(calpain) ratio)” value in assay [2] was “+ (10≦Ki(cathepsin B)/Ki(calpain)<30)”. Also, in assay [3], the “Sel cat. K (Ki(cathepsin K)/Ki(calpain) ratio)” value is listed as “+ (10≦Ki(cathepsin K)/Ki(calpain)<30)”. Also, the “Sel cat. L (Ki(cathepsin L)/Ki(calpain) ratio)” value in assay [4] is given as “++ (Ki(cathepsin L)/Ki(calpain) ratio of ≧50)”. The “Sel cat. S (Ki(cathepsin S)/Ki(calpain) ratio)” value in assay [5] is listed as “++ (Ki(cathepsin S)/Ki(calpain) ratio of ≧100)”.

Take `NC(=O)C(=O)[C@H](Cc1ccccc1)NC(=O)c1cccnc1-n1ccc(-c2ccccc2)n1` [Example 107, N-[(1S)-3-Amino-2,3-dioxo-1-(phenylmethyl)propyl]-2-(3-phenyl-1H-pyrazol-1-yl)pyridine-3-carboxamide]: the Ki in assay [1] is not above 40 nM. Also, in assay [2], the “Sel cat. B (Ki(cathepsin B)/Ki(calpain) ratio)” value is on record as “+ (10≦Ki(cathepsin B)/Ki(calpain)<30)”. Further, the “Sel cat. K (Ki(cathepsin K)/Ki(calpain) ratio)” value in assay [3] is recorded as “+ (10≦Ki(cathepsin K)/Ki(calpain)<30)”. For the same molecule, in assay [4], the “Sel cat. L (Ki(cathepsin L)/Ki(calpain) ratio)” value is “++ (Ki(cathepsin L)/Ki(calpain) ratio of ≧50)”. In addition, in assay [5], the “Sel cat. S (Ki(cathepsin S)/Ki(calpain) ratio)” value is given as “++ (Ki(cathepsin S)/Ki(calpain) ratio of ≧100)”.

Turning to `NC(=O)C(=O)C(Cc1ccccc1)NC(=O)c1cccnc1-n1ccc(-c2sccc2Cl)n1` (centres unmarked) [Example 109, N-[3-Amino-2,3-dioxo-1-(phenylmethyl)propyl]-2-[3-(3-chloro-2-thienyl)-1H-pyrazol-1-yl]pyridine-3-carboxamide], in assay [1], the Ki was not above 40 nM. Further, in assay [2], the “Sel cat. B (Ki(cathepsin B)/Ki(calpain) ratio)” value is reported as “++ (Ki(cathepsin B)/Ki(calpain) ratio of ≧30)”. Further, the “Sel cat. K (Ki(cathepsin K)/Ki(calpain) ratio)” value in assay [3] is “++ (Ki(cathepsin K)/Ki(calpain) ratio of ≧30)”. Moreover, in assay [4], the “Sel cat. L (Ki(cathepsin L)/Ki(calpain) ratio)” value is given as “++ (Ki(cathepsin L)/Ki(calpain) ratio of ≧50)”. Further, the “Sel cat. S (Ki(cathepsin S)/Ki(calpain) ratio)” value in assay [5] is reported as “++ (Ki(cathepsin S)/Ki(calpain) ratio of ≧100)”.
